Measurements from patent US9340559B2, “Proteasome inhibitor delanzomib for use in the treatment of lupus” (Cephalon, Inc., priority 2011, dated 2016).

What was measured:
NZM mice [1] = format: in vivo, mouse
NZM mice [2] = assay: Urinalysis: total urine protein (proteinuria), NZM mice (Example 2); format: in vivo, mouse; settings: G6 50 mg/kg ip, 1× wk

## O=P1(N(CCCl)CCCl)NCCCO1 (stereo not drawn) [CTX, Cyclophosphamide]
NZM mice [1]; G6 50 mg/kg ip, 1× wk
  Cytokine IL-13 AUC, percent change vs vehicle: 486%
  Cytokine IL-17A AUC, percent change vs vehicle: 508%
  Cytokine IP-10 AUC, percent change vs vehicle: 338%
  Cytokine MIG AUC, percent change vs vehicle: 359%
  Cytokine TNFα AUC, percent change vs vehicle: −25%
NZM mice [1]; G7 50 mg/kg 1× wk ip
  p, serum IL-12p40/p70 concentration vs G5 Bortezomib 0.3 mg/kg 1× wk ip: NS (NS = not significant (p > 0.05))
  p, serum IL-12p40/p70 concentration vs G6 Bortezomib 0.3 mg/kg 2× wk ip: NS (NS = not significant (p > 0.05))
  p, serum IL-12p40/p70 concentration vs G8 Dex 1.5 mg/kg 3× wk ip: NS (NS = not significant (p > 0.05))
  p, serum IL-12p40/p70 concentration vs G9 Vehicle 1× wk ip: p < 0.001
  p, serum IL-13 concentration vs G5 Bortezomib 0.3 mg/kg 1× wk ip: p < 0.001
  p, serum IL-13 concentration vs G6 Bortezomib 0.3 mg/kg 2× wk ip: p < 0.001
  p, serum IL-13 concentration vs G8 Dex 1.5 mg/kg 3× wk ip: p < 0.001
  p, serum IL-13 concentration vs G9 Vehicle 1× wk ip: p < 0.001
  p, serum IL-17A concentration vs G5 Bortezomib 0.3 mg/kg 1× wk ip: NS (NS = not significant (p > 0.05))
  p, serum IL-17A concentration vs G6 Bortezomib 0.3 mg/kg 2× wk ip: p < 0.001
  p, serum IL-17A concentration vs G8 Dex 1.5 mg/kg 3× wk ip: p < 0.001
  p, serum IL-17A concentration vs G9 Vehicle 1× wk ip: p < 0.001
  p, serum IP-10 concentration vs G5 Bortezomib 0.3 mg/kg 1× wk ip: P < 0.001
  p, serum IP-10 concentration vs G6 Bortezomib 0.3 mg/kg 2× wk ip: p < 0.001
  p, serum IP-10 concentration vs G8 Dex 1.5 mg/kg 3× wk ip: P < 0.001
  p, serum IP-10 concentration vs G9 Vehicle 1× wk ip: p < 0.001
  p, serum MIG concentration vs G5 Bortezomib 0.3 mg/kg 1× wk ip: p < 0.001
  p, serum MIG concentration vs G6 Bortezomib 0.3 mg/kg 2× wk ip: p < 0.001
  p, serum MIG concentration vs G8 Dex 1.5 mg/kg 3× wk ip: p < 0.001
  p, serum MIG concentration vs G9 Vehicle 1× wk ip: p < 0.001
  p, serum TNFα concentration vs G5 Bortezomib 0.3 mg/kg 1× wk ip: NS (NS = not significant (p > 0.05))
  p, serum TNFα concentration vs G6 Bortezomib 0.3 mg/kg 2× wk ip: NS (NS = not significant (p > 0.05))
  p, serum TNFα concentration vs G8 Dex 1.5 mg/kg 3× wk ip: p <0.05
  p, serum TNFα concentration vs G9 Vehicle 1× wk ip: NS (NS = not significant (p > 0.05))
NZM mice [2]
  Urine proteinuria AUC, percent change vs vehicle: −68%
